# Experiments:
# [1] = system: ipsilateral hemisphere of the brain; assay: Methotrexate content of brains of rats pretreated with M3,14 (DP-BFA); format: in vivo, rat; conditions: intra-arterial pre-treatment, carotid artery
# [2] = system: blood-brain barrier (BBB); assay: Reversibility of effect of M 3/14 on BBB permeability (Evan's Blue absorbance of brain extract); format: in vivo, rat (male Sprague-Dawley); conditions: for Quantity EB: 620 nm, per gram wet weight
# Experimental: The experiments were carried out on male Sprague-Dawley rats weighing 250-320 gr. They were anesthetized with Rampun-Imalgen. The right common carotid artery was exposed.
# The test compounds were dissolved in 0.1M phosphate buffered physiological saline (pH=7.4) at the following test concentrations: 1.6; 8; 20; 40; 200 and 1000 μg/ml. […] The resulting pH of the test solutions was in the range of 8.0 to 8.5, and contols for the pH effect were performed up to pH 9.
# The test compound was infused into the right common carotid artery at a rate of 6 ml/min. for 30 s. The control rats were infused with buffer. Evan's Blue (EB) solution at a concentration of […] (2 g Evan's Blue, 0.9 g NaCl in 100 ml water) was injected intravenously 50 minutes prior to the termination of the experiment.
# At the end of the experimental time period the animals were perfused with 100 ml of saline solution through the heart and decapitated. The degree of BBB opening, in terms of extravasation of Evan's Blue albumin, was graded on the basis of visual assessment of the degree of staining of the brain ato the method of Rapoport et al. (Rapoport et al., 1980, Amer. J. Physiol. 258, 421-431), and the results are presented in Tables 1 and 2.
# A second set of experiments was designed to determine whether the BBB disruption is reversible or irreversible after M 3/14 injection. The extravasation of Evan's Blue-albumin was evaluated at different time points between 3 h and 72 h after M 3/14 injection in concentrations of 8 and 20 μg/ml.
# The experiment was conducted on an average of three individual animals per dose per time point. The brains were removed and extracted in dimethylformamide for […]. at room temp. The extract was centrifuged and the supernatant collected and measured for absorbance at 620 nm. The results are presented per gram wet weight of the tissue.
# [3] = system: bovine brain capillary endothelial cells in co-culture with astrocytes; assay: Reversibility of DP-BFA effect on the paracellular permeability of the BBB in vitro; format: cell-based; conditions: for permeability of the monolayer for sucrose and inulin: 1 hour incubation
# Experimental: In regard with the previous results, 0.16 mg/ml (paracellular opening after 1 hr) and 0.32 mg/ml (paracellular and transcellular openings after 1 hr) were chosen to study the reversibility of the effect of DP-BFA.
# Endothelial cells are cocultured 12 days, on the twelfth culture day DP-BFA was added to the cultures for 1 hour, and then removed by replacement of the culture medium. The cultures then were maintained for a further 24 hours without DP-BFA, and subsequently assayed for paracellular permeability.
# (§1) Permeability studies were carried out on the monolayer of endothelial cells, using two paracellular tracers: inulin-^3 H and sucrose-^14C.
# [4] = system: rats; conditions: rat, in vivo
# [5] = system: mice; conditions: mouse, in vivo
# [6] = Stability and solution appearance of DP-BFA; format: physicochemical
# Experimental: (§2) DP-BFA is stored in a hermetically sealed dark vial filled with Argon at 5° C. for up to 3 months. The drug quantity was taken out the vial cap with a Teflon spatula. The compound was dissolved in sodium carbonate-sodium bicarbonate buffered saline solution adjusted to pH 8.8-9 at 37° C. A stock solution (12.8 mg/ml) was prepared and kept at 37° C. for 15 minutes. The solution was protected from light by covering it with aluminium foil. […] The desired concentration of DP-BFA was obtained by diluting the stock solution with the buffer. The solutions were filtered through a […] filter. The DP-BFA solutions were kept at 37° C. in vials protected from light, for no more than 6 hours.
# [7] = system: bovine brain capillary endothelial cells in co-culture with astrocytes; assay: Paracellular permeability (inulin and sucrose clearance), in vitro coculture model of the BBB; format: cell-based
# From the text: The alterations in barrier function on bovine brain capillary endothelial cells in co-culture were investigated. To provide an "in vitro" system for studying brain capillary functions, a process of coculture was used that closely mimics the "in vivo" situation by culturing brain capillary endothelial cells on one side of a filter and astrocytes on the other (Dehouck, et al. (1992) J. Neurochemistry 58:1790-1797). Endothelial cells form a confluent monolayer in 12 days.
# Endothelial cells are cultured in the upper compartment on the filter and astrocytes in the lower compartment on the plastic of the Petri dish.
# Under these conditions, endothelial cells retain all the endothelial markers (factor VIII--related antigen, nonthrombogenic surface, production of prostacyclin, angiotensin converting enzyme activity) and the characteristics of the blood-brain barrier (presence of tight junctions, paucity of pinocytotic vesicles, monoamine oxidase activity, γ-glutamyltranspeptidase activity).
# Two different time points were tested, namely 1 hr and 24 hrs of incubation with DP-BFA, and five different concentrations per time point: 0.04; 0.08; 0.16; 0.24; 0.32 mg/ml corresponding to 0.125; 0.25; 0.5; 0.75; 1×10^-3 M.
# as §2
# Stock solution of DP-BFA was added directly to the coculture medium (upper compartment) in order to obtain a dilution of 1:40.
# as §1
# To obtain a concentration-dependent transport parameter, the clearance principle was used. For each time, the increment in cleared volume between successive sampling events was calculated by dividing the amount of transported solute by the donor chamber concentration. The total volume cleared at each point was calculated by summing the incremental cleared volumes up to the given time point: [formula]
# where [C]L is the initial luminal tracer concentration, [C]A the abluminal tracer concentration, and VA the volume of the abluminal chamber. During the 45-mim experiment, the clearance volume increased linearly with time. The average volume cleared was plotted versus time, and the slope was estimated by linear regression analysis to give the mean and the SE to the estimate. The slope of the clearance curves for the coculture was denoted PSt, where PS is the permeability x surface area product (in microliters per minute). The slope of the clearance curve for the control filter was denoted PSf.
# The PS value for the endothelial monolayer (PSe) was calculated from [formula]
# The PSe values were divided by the surface area of the Millicell-PC (4.2 cm^2) to generate the endothelial permeability coefficient (Pe, in centimeters per minute).
# In that case, the results are presented as clearance (μl) in function of time (min) and clearance at 45 minutes for each condition.
# [8] = 0.08 mg/ml, 24 hours incubation
smiles,measurement,setting,value
"CCCCCCCCCCCCCCC(CCC)C(=O)O (stereo not drawn) [M 3/14, 2-propylhexadecanoic acid]",penetration of MTX into the ipsilateral hemisphere,[1],significantly increased the penetration of MTX
same,Quantity EB,"[2]; 8 μg/ml, 3 h",0.087 absorbance units
same,Quantity EB,"[2]; 8 μg/ml, 24 h",0.074 absorbance units
same,Quantity EB,"[2]; 20 μg/ml, 3 h",0.129 absorbance units
same,Quantity EB,"[2]; 20 μg/ml, 24 h",0.129 absorbance units
same,Quantity EB,"[2]; 20 μg/ml, 72 h",0.015 absorbance units
same,duration of effect on BBB permeability,[2]; depending on the dose used (8 and 20 μg/ml),exceed 24 hours
same,reversibility of paracellular permeability (clearance at 45 minutes),"[3]; 0.16 mg/ml 1 hr, then 24 hrs without DP-BFA",complete reversibility
same,permeability of the monolayer for sucrose and inulin,[3]; 0.16 mg/ml,increase in the permeability
same,decrease of paracellular permeability (clearance at 45 minutes),"[3]; 0.32 mg/ml 1 hr, then 24 hrs without DP-BFA",50%
same,permeability of the monolayer for sucrose and inulin,[3]; 0.32 mg/ml,increase in the permeability
same,paracellular breakdown (opening of the tight junctions),"[3]; 0.32 mg/ml, 1 hr",paracellular breakdown (opening of the tight junctions)
same,reversibility of DP-BFA effect,[3]; higher concentrations,Partial reversibility
same,brain edema or general edema,[4],no brain edema or general edema was observed
same,change of behavior,[4],No change of behavior was observed
same,brain edema or general edema,[5],no brain edema or general edema was observed
same,appearance of stock solution,"[6]; 12.8 mg/ml, carbonate-bicarbonate buffered saline, pH 8.8-9, 37° C.",completely transparent
same,"stability (sensitivity to light, CO2)","[6]; white powder, sodium salt",sensitive to light and atmospheric CO2
same,increase in permeability of the monolayer for inulin (clearance at 45 minutes),[7]; [8],179%
same,increase in permeability of the monolayer for sucrose (clearance at 45 minutes),[7]; [8],199%
same,paracellular breakdown (opening of the tight junctions),"[7]; 0.08 mg/ml, 24 hrs",paracellular breakdown (opening of the tight junctions)
same,increase in permeability of the monolayer for inulin (clearance at 45 minutes),"[7]; 0.16 mg/ml, 1 hour incubation",636%
same,increase in permeability of the monolayer for sucrose (clearance at 45 minutes),"[7]; 0.16 mg/ml, 1 hour incubation",679%
same,paracellular breakdown (opening of the tight junctions),"[7]; 0.16 mg/ml, 1 hr",paracellular breakdown (opening of the tight junctions)
